Series [1] concerns the target Replicase polyprotein 1ab (Severe acute respiratory syndrome coronavirus 2, UniProt P0DTD1). Put plainly: Inhibition of SARS-CoV-2 recombinant RdRp preincubated with enzyme for 15 mins followed by single stranded polyribonucleotide template and NTPs addition and measured after 2 hrs by fluorescence spectrometric analysis.
The subject of series [2] is SARS-CoV-2. The format is functional, Vero E6. To be noted: for inhibition at 10 µg/mL: Severe acute respiratory syndrome coronavirus 2, Vero C1008, 72 h, time 3 day.
The target in series [3] is Replicase polyprotein 1ab (Severe acute respiratory syndrome coronavirus 2) (UniProt P0DTD1). In words: Inhibition of SARS-CoV-2 recombinant RdRp at 50 ug/ml preincubated with enzyme for 15 mins followed by single stranded polyribonucleotide template and NTPs addition and measured after 2 hrs by fluorescence spectrometric analysis relative to control. To be noted: dose 50.0 µg/ml, time 135.0 min.

Series [4] concerns SARS-CoV-2. In words: microbe, parasite or virus in culture. To be noted: Severe acute respiratory syndrome coronavirus 2, NRC-03-nhCoV, Vero C1008, 72 h.
Description: Anti-SARS-CoV-2 activity against SARS-CoV-2 NRC-03-nhCoV infected in African green monkey Vero E6 cells assessed as inhibition of viral replication incubated for 72 hrs by crystal violet staining based analysis
In series [5] the test system is SARS-CoV-2. The format is functional, Vero E6. The conditions noted are these: Severe acute respiratory syndrome coronavirus 2, Vero C1008, 72 h, time 3 day.
Series [6] deals with SARS-CoV-2. Type of series: functional, Vero E6. The conditions noted are these: for inhibition at 10 µg/mL: Severe acute respiratory syndrome coronavirus 2, Vero C1008, 96 h, time 4 day.
A further series can be described thus: in vitro. The conditions noted are these: monkey, Vero E6 cells.
Series [7] can be described thus: Cytotoxicity against human Calu-3 cells. Type of series: toxicity, cell-based.
Series [8] concerns SARS-CoV-2. Type of series: functional. To be noted: Severe acute respiratory syndrome coronavirus 2, Calu-3, 96 h; dose 30 nM; time 4 day.
Series [9] relates to SARS-CoV-2. Type of series: functional. To be noted: Severe acute respiratory syndrome coronavirus 2, Calu-3, 96 h; dose 15 nM; time 4 day.
The test system of series [10] is SARS-CoV-2. Put plainly: microbe, parasite or virus in culture. To be noted: Severe acute respiratory syndrome coronavirus 2, NRC-03-nhCoV, Calu-3, 72 h.
Description: Anti-SARS-CoV-2 activity against SARS-CoV-2 NRC-03-nhCoV infected in human Calu-3 cells expressing TMPRSS2 assessed as inhibition of viral replication incubated for 72 hrs by crystal violet staining based analysis

Active and inactive are the calls of the source. The rule behind the calls is not given here.

By IC50 is commonly meant the concentration that gives 50% inhibition. As a reminder, the inhibition is how much of the control response was suppressed. Usually CC50 stands for the concentration at which the toxic effect on the cells reaches its halfway point.

Description for in vitro: Selectivity index, ratio of CC50 for cytotoxicity against African green monkey Vero E6 cells to IC50 for anti-SARS-CoV-2 activity against SARS-CoV-2 NRC-03-nhCoV infected in African green monkey Vero E6 cells

Take `N#C[C@@]1(c2ccc3c(NC(=O)c4ccc(NC(=N)N)cc4)ncnn23)O[C@H](CO)[C@@H](O)[C@H]1O`: the half-inhibitory concentration (IC50) in series [1] is 6.1 nM; in the series with SARS-CoV-2 [4] it was 3.9 nM. For the same compound, the results for the inhibition at 10 µg/mL in the series with SARS-CoV-2 [2], in the series with SARS-CoV-2 [5] and in the series with SARS-CoV-2 [6] were 51.4%, 66% and 44%, respectively. Moreover, in [3], the inhibition was 91.5%.
`O=C(Nc1ccn(C2OC(CO)C(O)C2O)c(=O)n1)c1ccc(Nc2ncccn2)cc1` (stereo unspecified) yielded an IC50 with SARS-CoV-2 [4] of 52 nM. For the same compound, the selectivity ratio in the series “in vitro” was 7.18.
In turn, `CN(C)C(=O)COC(=O)Cc1ccc(OC(=O)c2ccc(NC(=N)N)cc2)cc1` [CAMOSTAT] returned a CC50 in series [7] of 230 nM. The compound further returned an inhibition at 0.03 µM in the series with SARS-CoV-2 [8] of 80%. Also, testing at 0.015 µM in the series on SARS-CoV-2 [9] gave an inhibition of 70%. The same compound gave a concentration for half-maximal inhibition (IC50) in the series with SARS-CoV-2 [10] of 8.21 nM.
In the series on SARS-CoV-2 [4], `CC(C)(C)OC(=O)Nc1ccc(C(=O)Nc2ncnn3c([C@]4(C#N)O[C@H](CO)[C@@H](O)[C@H]4O)ccc23)cc1` showed an IC50 of 42.2 nM. Further, in “in vitro”, the selectivity ratio amounted to 6.65.
`CCC(CC)COC(=O)[C@H](C)N[P@](=O)(OC[C@H]1O[C@@](C#N)(c2ccc3c(N)ncnn23)[C@H](O)[C@@H]1O)Oc1ccccc1` [REMDESIVIR]: the inhibition in series [3] is 73%. Further, the IC50 in the series with SARS-CoV-2 [4] amounted to 55.6 nM. Also, the selectivity ratio in the series “in vitro” was found to be 3.02.
In the case of `CC(C)c1cc(=O)oc2ccc(OC(=O)c3ccc(NC(=N)N)cc3)cc12`, the IC50 worked out at 4.42 nM in [1], 5.7 nM in the series on SARS-CoV-2 [4] and 17.5 nM in the series on SARS-CoV-2 [10]. In [7], this compound returned a CC50 of 450 nM. The inhibition at 10 µg/mL with SARS-CoV-2 [2] amounted to 90.5%; in the series with SARS-CoV-2 [5], 63.2%; in the series on SARS-CoV-2 [6], 65%. In series [3], the inhibition worked out at 89%. Moreover, 0.03 µM produced 60% inhibition in the series on SARS-CoV-2 [8]. Also, the inhibition at 0.015 µM in the series with SARS-CoV-2 [9] amounted to 45%.
Turning to `N#C[C@@]1(c2ccc3c(NC(=O)c4ccc(Nc5ncccn5)cc4)ncnn23)O[C@H](CO)[C@@H](O)[C@H]1O`, the IC50 in series [1] came out at 32.4 nM; in the series with SARS-CoV-2 [4], 19.7 nM. Besides, the inhibition entry with SARS-CoV-2 [2] (Severe acute respiratory syndrome coronavirus 2, Vero E6, dose 10.0 µg/ml, time 3.0 day) is “inactive”; in the series on SARS-CoV-2 [6] (Severe acute respiratory syndrome coronavirus 2, Vero E6, dose 10.0 µg/ml, time 4.0 day), “inactive”. The inhibition in [3] came to 77%. In the series “in vitro”, the selectivity ratio came out at 2.64. Also, the inhibition at 10 µg/mL in the series with SARS-CoV-2 [5] came to 51.3%.
Turning to `N=C(N)Nc1ccc(C(=O)Nc2ncnc3[nH]cnc23)cc1`, in the series with SARS-CoV-2 [4], it took 22.8 nM to reach half-maximal inhibition (IC50). Besides, the selectivity ratio in “in vitro” was 1.

The values are drawn from ChEMBL document CHEMBL5614378, “Novel compounds with dual inhibition activity against SARS-CoV-2 critical enzymes RdRp and human TMPRSS2” (Eur J Med Chem, 2024).
